Laboratory results reported in EP1056745B1, “6,9-DISUBSTITUTED 2- TRANS-(4- AMINOCYCLOHEXYL) AMINO]PURINES” (Aventis Pharmaceuticals Inc., priority 1998, dated 1999).

Key:
[1] = test system: PC-3 Human Prostate Tumor; test: Subrenal capsule assay, inhibition of PC-3 tumor growth; assay type: in vivo, Nude Mice; settings: for V/V0 (mean ± s.e.m.): 12 days, Experiment # 1; for %T/C: day 12, Experiment # 1
Protocol: Nude mice were housed in microisolator cages under positive air pressure. Surgical procedures and dosing were performed in a laminar flow cabinet. The subrenal capsule assay was performed as described in Bogden, A. E., Kelton, D. E., Cobb, W. R. and Esber, H. J. A rapid screening method for testing chemotherapeutic agents against human tumor xenografts. In: D. P. Houchens and A. A. Ovejera (eds.), Proceedings of the Symposium on the Use of Athymic (Nude) Mice in Cancer Research, pp 231-250. New York: Gustav Fischer New York, Inc. 1978. Briefly, tumors of 400-500 mm^3 obtained from maintenance mice were cut into 1 mm^3 pieces and the sizes checked using an ocular micrometer and a dissecting microscope. After exteriorization of the kidney, tumor pieces were implanted under the capsule of the kidneys of male nude mice (6-8 weeks of age) using a 13 Ga trochar. After implantation, the longest and shortest diameters of the tumor piece were measured using the ocular micrometer and a dissecting microscope. The kidney was placed back into the body cavity and the body wall incision closed with silk sutures and the skin incision closed with wound clips. Drug treatment was begun on the day following implantation and continued for 12 days at which time the kidneys were again exteriorized and tumor size measured as described above. Tumor volume was calculated by the formula, V = length x width^2/2 as described in Houchens, D. P., Ovejera, A. A., and Barker, A. D. The therapy of human tumors in athymic (nude) mice. In : D. P. Houchens and A. A. Ovejera (eds.), Proceedings of the Symposium on the Use of Athymic (Nude) Mice in Cancer Research, pp. 267-280. New York: Gustav Fischer New York, Inc., 1978.

[2] = test system: neuronally differentiated PC12 cells; settings: cited from earlier work; for concentration of maximal protection from death: camptothecin-treated; for cell death: day 6, in the presence or absence of camptothecin, both or individual
cortical neurons = settings: cited from earlier work; for IC50: protection against camptothecin-induced death
[3] = test system: CDK-cyclin protein kinases; settings: moderate inhibitory activity; cited from earlier work
[4] = test system: cAMP- and cGMP-dependent kinases, and protein kinase C; settings: cited from earlier work
[5] = test system: neuronal PC12 cells and sympathetic neurons; settings: two model systems of neuronal survival; cited from earlier work
rat sympathetic neurons = settings: camptothecin-treated; cited from earlier work
proliferating PC12 cells = settings: cited from earlier work
[6] = camptothecin-treated neuronal cells

Row | SMILES | V/V0 (mean ± s.e.m.) ([1]; 1 mg/kg i.p. daily) | %T/C ([1]; 1 mg/kg i.p. daily) | V/V0 (mean ± s.e.m.) ([1]; 3 mg/kg i.p. daily) | %T/C ([1]; 3 mg/kg i.p. daily) | prevention of cell death [2, 6] | prevention of cell death (cortical neurons; [6]) | IC50 [3] | effect on other major protein kinases [4] | death of neuronal cells [5] | concentration of maximal protection from death [2] | cell death [2] | concentration of maximal protection from death (rat sympathetic neurons) | minimum concentration that fully inhibits DNA synthesis (proliferating PC12 cells) | IC50 (cortical neurons)
1 | Cl.Cl.N[C@H]1CC[C@H](Nc2nc(NCc3cccc(I)c3)c3ncn(C4CCCC4)c3n2)CC1 [Example 1, 2-[Trans-(4-aminocyclohexyl)amino]-6-(3-iodobenzylamino)-9-cyclopentylpurine dihydrochloride] | 4.8 ± 3.1 | 109% | 2.0 ± 1.0 | 44% |  |  |  |  |  |  |  |  |  | 
2 | Cn1cnc2nc(NCCO)nc(NCc3ccccc3)c21 [iso-olomoucine] |  |  |  |  | failed to prevent the cell death | failed to prevent the cell death |  |  |  |  |  |  |  | 
3 | Cn1cnc2c(NCc3ccccc3)nc(NCCO)nc21 [Olomoucine, 6-(benzylamino)-2-[(2-hydroxyethyl)amino]-9-methylpurine] |  |  |  |  |  |  | ~7 µM | no effect | suppress the death | 200 µM | approximately 30% | 200 µM | 200 µM | 100 µM
4 | CN1CC[C@H](c2c(O)cc(O)c3c(=O)cc(-c4ccccc4Cl)oc23)[C@H](O)C1 [flavopiridol] |  |  |  |  |  |  |  |  | suppress the death | 1 µM | approximately 30% | 1 µM | 1 µM | 0.1 µM
